Results: article PMC12136037, “Type II kinase inhibitors that target Parkinson’s disease–associated LRRK2” (Science Advances, 2025)

How the values were obtained:
Assay in all cases: DSF 100 kinase selectivity screen;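 note: compound tested at 20 µM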
Assay type in all cases: binding
[1] = molecular target: T1, ~100 representative kinases (Homo sapiens, UniProt P17948); settings: protein FLT1; average of three replicates
T1 construct: Recombinant protein kinase domains with a concentration of 2 μM
Method: (§1) Recombinant protein kinase domains with a concentration of 2 μM were mixed with a 20 μM compound solution in dimethyl sulfoxide (DMSO), 20 mM Hepes (pH 7.5), and 500 mM NaCl. SYPRO Orange (5000×, Invitrogen) was added as a fluorescence probe (1μl/ml). Subsequently, temperature-dependent protein unfolding profiles were measured using the QuantStudio 5 realtime PCR machine (Thermo Fisher Scientific, Waltham, MA, USA). […] The temperature was raised with a step rate of 3°C/min. […] Differences in melting temperature are given as ΔTm values in degrees Celsius. […]

[2] = molecular target: T2, ~100 representative kinases (Homo sapiens, UniProt Q5VT25); settings: Protein CDC42BPA; average of three replicates
T2 construct: Recombinant protein kinase domains with a concentration of 2 μM
Method: as §1

[3] = molecular target: T3, ~100 representative kinases (Homo sapiens, UniProt Q15375); settings: Protein EPHA7; average of three replicates
T3 construct: Recombinant protein kinase domains with a concentration of 2 μM
Method: as §1

[4] = molecular target: T4, ~100 representative kinases (Homo sapiens, UniProt P12931); settings: Protein SRC; DSF; average of three replicates
T4 construct: Recombinant protein kinase domains with a concentration of 2 μM
Method: as §1

[5] = molecular target: T5, ~100 representative kinases (Homo sapiens, UniProt Q8TDX7); settings: protein NEK7; average of three replicates
T5 construct: Recombinant protein kinase domains with a concentration of 2 μM
Method: as §1

[6] = molecular target: T6, ~100 representative kinases (Homo sapiens, UniProt O95747); settings: protein OSR1; average of three replicates
T6 construct: Recombinant protein kinase domains with a concentration of 2 μM
Method: as §1

[7] = molecular target: T7, ~100 representative kinases (Homo sapiens, UniProt P16083); settings: protein NQO2; average of three replicates
T7 construct: Recombinant protein kinase domains with a concentration of 2 μM
T7 sequence (P16083 1-231): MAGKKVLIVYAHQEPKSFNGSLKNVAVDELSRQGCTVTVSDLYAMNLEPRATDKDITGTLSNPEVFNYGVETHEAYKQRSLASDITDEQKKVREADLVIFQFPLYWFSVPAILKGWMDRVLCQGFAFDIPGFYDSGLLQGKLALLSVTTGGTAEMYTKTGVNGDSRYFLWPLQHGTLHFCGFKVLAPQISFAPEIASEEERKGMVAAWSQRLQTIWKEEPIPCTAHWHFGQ
Method: as §1

[8] = molecular target: T8, ~100 representative kinases (Homo sapiens, UniProt Q96SB4); settings: Protein SRPK1; DSF; average of three replicates
T8 construct: Recombinant protein kinase domains with a concentration of 2 μM
Method: as §1

[9] = molecular target: T9, ~100 representative kinases (Homo sapiens, UniProt O43293); settings: Protein DAPK3; average of three replicates
T9 construct: Recombinant protein kinase domains with a concentration of 2 μM
Method: as §1

[10] = molecular target: T10, ~100 representative kinases (Homo sapiens, UniProt P21802); settings: protein FGFR2; average of three replicates
T10 construct: Recombinant protein kinase domains with a concentration of 2 μM
Method: as §1

[11] = molecular target: T11, ~100 representative kinases (Homo sapiens, UniProt Q9UPE1); settings: Protein SRPK3; DSF; average of three replicates
T11 construct: Recombinant protein kinase domains with a concentration of 2 μM
Method: as §1

[12] = molecular target: T12, ~100 representative kinases (Homo sapiens, UniProt Q09013); settings: Protein DMPK1; average of three replicates
T12 construct: Recombinant protein kinase domains with a concentration of 2 μM
T12 sequence (Q09013 1-629): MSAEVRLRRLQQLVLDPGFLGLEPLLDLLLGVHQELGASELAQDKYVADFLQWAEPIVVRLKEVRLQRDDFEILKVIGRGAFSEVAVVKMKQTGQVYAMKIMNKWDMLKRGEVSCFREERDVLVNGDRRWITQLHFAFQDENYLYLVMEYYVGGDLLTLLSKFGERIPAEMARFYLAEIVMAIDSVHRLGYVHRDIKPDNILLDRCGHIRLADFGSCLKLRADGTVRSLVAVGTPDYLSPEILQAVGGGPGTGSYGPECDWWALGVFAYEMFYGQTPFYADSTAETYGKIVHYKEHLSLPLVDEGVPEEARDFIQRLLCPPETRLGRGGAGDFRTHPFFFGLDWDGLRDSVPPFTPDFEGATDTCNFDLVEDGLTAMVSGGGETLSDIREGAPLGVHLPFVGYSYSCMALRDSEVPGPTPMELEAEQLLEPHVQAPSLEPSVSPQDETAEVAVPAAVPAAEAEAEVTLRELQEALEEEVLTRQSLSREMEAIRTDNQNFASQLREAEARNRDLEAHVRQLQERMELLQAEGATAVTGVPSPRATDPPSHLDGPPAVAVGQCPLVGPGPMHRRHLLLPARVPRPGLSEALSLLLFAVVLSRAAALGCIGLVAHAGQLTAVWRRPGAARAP
Method: as §1

[13] = molecular target: T13, ~100 representative kinases (Homo sapiens, UniProt O14965); settings: Protein STK6; DSF; average of three replicates
T13 construct: Recombinant protein kinase domains with a concentration of 2 μM
T13 sequence (O14965 1-403): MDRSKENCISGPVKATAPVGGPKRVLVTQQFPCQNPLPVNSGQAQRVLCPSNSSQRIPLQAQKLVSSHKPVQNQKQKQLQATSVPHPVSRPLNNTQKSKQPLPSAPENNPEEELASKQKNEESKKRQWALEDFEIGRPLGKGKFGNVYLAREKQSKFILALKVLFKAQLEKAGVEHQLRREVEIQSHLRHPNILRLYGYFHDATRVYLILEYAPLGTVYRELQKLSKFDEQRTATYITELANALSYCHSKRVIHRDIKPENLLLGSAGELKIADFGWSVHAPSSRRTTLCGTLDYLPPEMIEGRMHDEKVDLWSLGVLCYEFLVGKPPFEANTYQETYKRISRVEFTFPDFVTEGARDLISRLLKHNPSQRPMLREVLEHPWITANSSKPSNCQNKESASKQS
Method: as §1

T11 sequence (Q9UPE1 whole entry, the tested form may be a part): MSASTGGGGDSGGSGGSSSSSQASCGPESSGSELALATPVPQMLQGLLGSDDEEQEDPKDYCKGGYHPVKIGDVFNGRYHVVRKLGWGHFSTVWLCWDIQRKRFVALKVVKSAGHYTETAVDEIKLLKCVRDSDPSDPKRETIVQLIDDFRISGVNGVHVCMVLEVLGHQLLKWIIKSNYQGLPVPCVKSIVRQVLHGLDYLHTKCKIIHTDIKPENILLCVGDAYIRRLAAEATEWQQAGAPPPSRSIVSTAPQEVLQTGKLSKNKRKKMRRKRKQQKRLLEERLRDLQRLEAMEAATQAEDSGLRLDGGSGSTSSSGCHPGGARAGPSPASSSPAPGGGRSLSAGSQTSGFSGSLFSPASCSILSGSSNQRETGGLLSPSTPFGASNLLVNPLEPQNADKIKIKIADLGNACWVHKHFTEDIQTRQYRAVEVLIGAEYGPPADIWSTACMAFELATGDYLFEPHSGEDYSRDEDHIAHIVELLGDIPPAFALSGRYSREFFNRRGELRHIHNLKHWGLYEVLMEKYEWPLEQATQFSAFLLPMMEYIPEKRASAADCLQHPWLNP
T9 sequence (O43293 whole entry, the tested form may be a part): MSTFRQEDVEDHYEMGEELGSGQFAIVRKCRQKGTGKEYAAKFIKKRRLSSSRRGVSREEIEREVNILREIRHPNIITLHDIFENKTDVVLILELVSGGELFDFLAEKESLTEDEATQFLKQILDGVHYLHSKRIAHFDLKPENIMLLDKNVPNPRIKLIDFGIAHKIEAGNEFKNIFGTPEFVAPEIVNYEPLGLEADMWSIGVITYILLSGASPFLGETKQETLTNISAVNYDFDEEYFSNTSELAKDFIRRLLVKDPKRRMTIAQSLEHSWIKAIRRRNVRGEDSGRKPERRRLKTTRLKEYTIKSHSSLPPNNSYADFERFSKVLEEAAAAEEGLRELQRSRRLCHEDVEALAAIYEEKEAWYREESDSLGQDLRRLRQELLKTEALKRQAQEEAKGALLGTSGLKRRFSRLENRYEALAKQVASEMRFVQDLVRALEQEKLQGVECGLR
T4 sequence (P12931 whole entry, the tested form may be a part): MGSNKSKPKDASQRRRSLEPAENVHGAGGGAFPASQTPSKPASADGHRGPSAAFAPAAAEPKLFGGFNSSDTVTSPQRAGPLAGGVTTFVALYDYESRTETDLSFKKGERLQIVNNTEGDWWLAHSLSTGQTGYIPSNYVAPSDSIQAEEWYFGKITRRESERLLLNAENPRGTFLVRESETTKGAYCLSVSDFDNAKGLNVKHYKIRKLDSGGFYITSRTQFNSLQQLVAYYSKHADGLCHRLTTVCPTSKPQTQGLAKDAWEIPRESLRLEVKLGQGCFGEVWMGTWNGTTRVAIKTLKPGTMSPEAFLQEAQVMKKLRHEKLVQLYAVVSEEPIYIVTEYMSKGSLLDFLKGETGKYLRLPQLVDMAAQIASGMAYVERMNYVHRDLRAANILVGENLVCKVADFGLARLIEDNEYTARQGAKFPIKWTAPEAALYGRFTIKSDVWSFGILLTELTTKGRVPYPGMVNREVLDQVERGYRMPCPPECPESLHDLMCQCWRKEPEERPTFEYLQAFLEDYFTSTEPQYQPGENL
T3 sequence (Q15375 28-998): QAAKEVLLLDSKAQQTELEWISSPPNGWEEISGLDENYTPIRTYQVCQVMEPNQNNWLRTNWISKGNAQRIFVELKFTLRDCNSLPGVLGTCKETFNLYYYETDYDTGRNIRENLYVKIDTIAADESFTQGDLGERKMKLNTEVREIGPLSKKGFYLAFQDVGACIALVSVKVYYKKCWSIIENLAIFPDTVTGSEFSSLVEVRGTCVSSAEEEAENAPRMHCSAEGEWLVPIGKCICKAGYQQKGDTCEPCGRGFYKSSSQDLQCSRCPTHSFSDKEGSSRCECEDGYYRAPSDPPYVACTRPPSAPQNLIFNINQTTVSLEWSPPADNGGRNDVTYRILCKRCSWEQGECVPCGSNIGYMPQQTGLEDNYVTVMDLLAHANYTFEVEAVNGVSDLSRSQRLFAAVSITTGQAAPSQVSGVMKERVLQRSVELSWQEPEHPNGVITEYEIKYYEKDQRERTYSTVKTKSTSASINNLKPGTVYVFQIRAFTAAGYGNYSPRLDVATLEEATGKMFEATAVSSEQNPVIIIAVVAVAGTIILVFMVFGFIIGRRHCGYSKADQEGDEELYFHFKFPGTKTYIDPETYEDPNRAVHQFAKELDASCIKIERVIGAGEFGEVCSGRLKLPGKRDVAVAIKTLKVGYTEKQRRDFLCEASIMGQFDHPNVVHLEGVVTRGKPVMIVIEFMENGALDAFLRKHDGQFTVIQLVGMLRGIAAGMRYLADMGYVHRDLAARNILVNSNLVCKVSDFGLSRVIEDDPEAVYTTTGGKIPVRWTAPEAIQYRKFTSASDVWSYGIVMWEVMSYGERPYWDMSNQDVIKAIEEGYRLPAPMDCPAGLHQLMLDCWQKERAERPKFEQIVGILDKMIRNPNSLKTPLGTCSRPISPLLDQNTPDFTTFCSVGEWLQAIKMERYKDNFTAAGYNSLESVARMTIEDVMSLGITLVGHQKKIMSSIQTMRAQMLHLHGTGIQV
T8 sequence (Q96SB4 whole entry, the tested form may be a part): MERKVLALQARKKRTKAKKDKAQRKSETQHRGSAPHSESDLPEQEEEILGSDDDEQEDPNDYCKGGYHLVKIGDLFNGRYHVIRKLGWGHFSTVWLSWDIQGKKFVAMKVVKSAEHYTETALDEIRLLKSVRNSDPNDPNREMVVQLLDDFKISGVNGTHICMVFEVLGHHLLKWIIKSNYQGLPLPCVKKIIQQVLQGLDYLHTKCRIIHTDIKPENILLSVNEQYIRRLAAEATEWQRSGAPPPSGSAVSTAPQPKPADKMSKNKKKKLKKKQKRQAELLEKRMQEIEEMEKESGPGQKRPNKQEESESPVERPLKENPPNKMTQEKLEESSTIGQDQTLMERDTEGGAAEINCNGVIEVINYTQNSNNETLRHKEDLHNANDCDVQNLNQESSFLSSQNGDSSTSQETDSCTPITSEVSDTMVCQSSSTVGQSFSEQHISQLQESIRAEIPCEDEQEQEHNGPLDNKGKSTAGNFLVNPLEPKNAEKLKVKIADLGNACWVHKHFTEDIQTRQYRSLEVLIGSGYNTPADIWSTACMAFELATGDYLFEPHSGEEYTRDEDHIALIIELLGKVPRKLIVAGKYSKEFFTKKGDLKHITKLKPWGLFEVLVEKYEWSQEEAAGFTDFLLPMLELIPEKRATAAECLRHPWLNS
T6 sequence (O95747 whole entry, the tested form may be a part): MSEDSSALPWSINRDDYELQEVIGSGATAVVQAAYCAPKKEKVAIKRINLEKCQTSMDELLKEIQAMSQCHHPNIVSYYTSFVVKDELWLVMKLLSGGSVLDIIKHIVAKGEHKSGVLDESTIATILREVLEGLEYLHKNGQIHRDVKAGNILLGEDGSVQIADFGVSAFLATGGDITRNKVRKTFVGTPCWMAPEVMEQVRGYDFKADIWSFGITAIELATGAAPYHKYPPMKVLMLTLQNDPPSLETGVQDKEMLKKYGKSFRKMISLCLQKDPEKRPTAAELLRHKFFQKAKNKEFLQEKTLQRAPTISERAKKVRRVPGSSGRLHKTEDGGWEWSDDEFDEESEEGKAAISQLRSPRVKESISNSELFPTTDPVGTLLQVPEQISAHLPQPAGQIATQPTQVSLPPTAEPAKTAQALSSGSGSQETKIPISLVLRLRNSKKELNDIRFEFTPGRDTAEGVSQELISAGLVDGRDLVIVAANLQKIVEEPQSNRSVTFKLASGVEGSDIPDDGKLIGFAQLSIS
T10 sequence (P21802 22-821): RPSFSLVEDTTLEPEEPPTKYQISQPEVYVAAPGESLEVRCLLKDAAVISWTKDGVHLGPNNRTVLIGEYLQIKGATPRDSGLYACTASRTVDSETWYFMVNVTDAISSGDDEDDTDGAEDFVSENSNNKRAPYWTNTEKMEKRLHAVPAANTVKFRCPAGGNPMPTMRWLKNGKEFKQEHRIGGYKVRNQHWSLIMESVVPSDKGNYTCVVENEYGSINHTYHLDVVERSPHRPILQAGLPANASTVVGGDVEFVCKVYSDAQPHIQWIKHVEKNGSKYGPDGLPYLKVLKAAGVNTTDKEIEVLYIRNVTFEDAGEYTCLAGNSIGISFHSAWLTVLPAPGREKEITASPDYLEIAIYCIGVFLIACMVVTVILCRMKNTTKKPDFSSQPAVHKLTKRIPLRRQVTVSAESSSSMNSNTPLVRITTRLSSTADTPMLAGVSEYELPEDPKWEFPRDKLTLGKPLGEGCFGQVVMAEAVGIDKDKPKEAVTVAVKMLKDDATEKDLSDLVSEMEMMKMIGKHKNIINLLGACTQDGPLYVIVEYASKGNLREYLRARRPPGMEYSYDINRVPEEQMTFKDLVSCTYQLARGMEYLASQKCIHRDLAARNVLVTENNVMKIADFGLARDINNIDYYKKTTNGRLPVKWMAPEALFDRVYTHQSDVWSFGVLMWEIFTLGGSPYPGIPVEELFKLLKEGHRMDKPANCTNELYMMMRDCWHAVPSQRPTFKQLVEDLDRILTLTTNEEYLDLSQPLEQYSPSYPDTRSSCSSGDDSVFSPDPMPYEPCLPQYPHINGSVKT
T5 sequence (Q8TDX7 whole entry, the tested form may be a part): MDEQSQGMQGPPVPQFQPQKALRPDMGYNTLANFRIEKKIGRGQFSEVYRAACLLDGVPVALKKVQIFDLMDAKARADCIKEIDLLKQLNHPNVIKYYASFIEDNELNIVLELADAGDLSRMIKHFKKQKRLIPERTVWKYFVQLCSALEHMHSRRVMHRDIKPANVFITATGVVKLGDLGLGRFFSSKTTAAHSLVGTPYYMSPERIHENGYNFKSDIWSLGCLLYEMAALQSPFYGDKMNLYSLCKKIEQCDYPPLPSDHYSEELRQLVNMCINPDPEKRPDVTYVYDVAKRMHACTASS

SMILES | dTm [1] | dTm [2] | dTm [3] | dTm [4] | dTm [5] | dTm [6] | dTm [7] | dTm [8] | dTm [9] | dTm [10] | dTm [11] | dTm [12] | dTm [13]
O=C(Nc1ccc(Cl)cc1)C1(C(=O)Nc2cccc(-c3c[nH]c4ncnc(N5CCOCC5)c34)c2)CC1 [Compound 13] | 3.57 K | -0.08 K | 0.19 K | 1.70 K | 1.06 K | 2.33 K | 0.45 K | 12.04 K | 8.55 K | 3.14 K | 8.47 K | -0.32 K | 9.16 K
Cc1ccc(NC(=O)C2(C(=O)Nc3cccc(-c4c[nH]c5ncnc(N6CCOCC6)c45)c3)CC2)cc1 [Compound 14] | 4.17 K | -1.21 K | -1.63 K | 1.11 K | -0.37 K | 1.54 K | 0.0157 K | 7.30 K | 4.16 K | 1.78 K | 5.15 K | -0.76 K | 7.04 K
CCc1ccc(NC(=O)C2(C(=O)Nc3cccc(-c4c[nH]c5ncnc(N6CCOCC6)c45)c3)CC2)cc1 [Compound 15] | 0.00 K | -0.98 K | -2.17 K | 1.22 K | -0.42 K | 0.69 K | 0.0657 K | 5.47 K | 3.77 K | 2.28 K | 3.89 K | -1.02 K | 9.54 K
COc1ccc(NC(=O)C2(C(=O)Nc3cccc(-c4c[nH]c5ncnc(N6CCOCC6)c45)c3)CC2)cc1 [Compound 16] | 2.53 K | -1.10 K | -2.77 K | 0.65 K | -0.67 K | 0.35 K | -0.51 K | 3.35 K | 1.15 K | 1.54 K | 2.74 K | -0.98 K | 5.48 K
O=C(Nc1cccc(-c2c[nH]c3ncnc(N4CCOCC4)c23)c1)C1(C(=O)Nc2ccc(F)c(F)c2)CC1 [Compound 17] | 3.85 K | -0.72 K | -1.27 K | 1.01 K | 1.01 K | 2.20 K | -0.41 K | 8.69 K | 8.69 K | 2.62 K | 5.74 K | -0.94 K | 7.27 K
O=C(Nc1cccc(-c2c[nH]c3ncnc(N4CCOCC4)c23)c1)C1(C(=O)Nc2ccc(F)c(Cl)c2)CC1 [Compound 18] | 0.43 K | -0.25 K | 0.26 K | 1.18 K | 1.61 K | 0.31 K | 0.34 K | 12.10 K | 10.62 K | 4.02 K | 7.93 K | -0.69 K | 8.24 K
O=C(Nc1cccc(-c2c[nH]c3ncnc(N4CCOCC4)c23)c1)C1(C(=O)Nc2ccc(F)c(Br)c2)CC1 [Compound 19] | 3.75 K | 0.14 K | 2.85 K | -0.25 K | -1.14 K | 1.49 K | -0.18 K | 7.58 K | 8.34 K | 4.16 K | 6.39 K | -0.17 K | 7.49 K
Cc1cc(NC(=O)C2(C(=O)Nc3cccc(-c4c[nH]c5ncnc(N6CCOCC6)c45)c3)CC2)ccc1F [Compound 20] | -2.83 K | -1.13 K | -0.92 K | 1.91 K | 0.98 K | 1.31 K | -1.06 K | 13.77 K | 10.09 K | 4.17 K | 10.86 K | -1.17 K | 8.40 K
COc1cc(NC(=O)C2(C(=O)Nc3cccc(-c4c[nH]c5ncnc(N6CCOCC6)c45)c3)CC2)ccc1F [Compound 21] | 4.43 K | -1.17 K | -1.98 K | 0.91 K | 0.39 K | 1.79 K | -1.04 K | 11.40 K | 7.62 K | 2.99 K | 6.98 K | -1.06 K | 6.06 K
CC(C)(C)c1cccc(NC(=O)C2(C(=O)Nc3cccc(-c4c[nH]c5ncnc(N6CCOCC6)c45)c3)CC2)c1 [Compound 22] | 2.44 K | -0.53 K | 2.40 K | -0.0179 K | 0.18 K | 4.04 K | -1.08 K | 9.79 K | 3.52 K | 3.68 K | 4.39 K | -0.60 K | 6.69 K
O=C(Nc1cccc(-c2c[nH]c3ncnc(N4CCOCC4)c23)c1)C1(C(=O)Nc2ccc(F)cc2F)CC1 [Compound 23] | 3.92 K | -1.22 K | -2.29 K | 0.45 K | 0.03 K | 1.41 K | -1.88 K | 6.35 K | 3.66 K | 2.08 K | 4.09 K | -0.57 K | 6.33 K
Cc1cc(F)ccc1NC(=O)C1(C(=O)Nc2cccc(-c3c[nH]c4ncnc(N5CCOCC5)c34)c2)CC1 [Compound 24] | 4.10 K | -1.23 K | -2.57 K | 0.70 K | 0.20 K | 0.69 K | -2.19 K | 3.79 K | 2.09 K | 2.08 K | 1.90 K | -1.04 K | 6.56 K
